Measured values taken from article PMC12670405, “Second-Generation AURKA-Targeting PROTACs: Structural Optimization toward in Vivo Degradation in Neuroblastoma” (Journal of Medicinal Chemistry, 2025).

Key:
Experiment in all cases: KINOMEscan scanMAX
Type in all cases: binding
Conditions in all cases: read-out: Percent Control
[1] = target: T1, CDK7 (Homo sapiens, UniProt P50613)
T1 construct: purchased Eurofins Discovery (DiscoverX KINOMEscan scanMAX)
Method: (§1) The kinome-wide binding assay was performed by Eurofins Discovery using the scanMAX screening platform. More information can be found on the Eurofins Discovery Web site.

[2] = target: T2, HCK (Homo sapiens, UniProt P08631)
T2 construct: purchased Eurofins Discovery (DiscoverX KINOMEscan scanMAX)
Method: as §1

[3] = target: T3, STK33 (Homo sapiens, UniProt Q9BYT3)
T3 construct: purchased Eurofins Discovery (DiscoverX KINOMEscan scanMAX)
Method: as §1

[4] = target: T4, PAK3 (Homo sapiens, UniProt O75914)
T4 construct: purchased Eurofins Discovery (DiscoverX KINOMEscan scanMAX)
Method: as §1

[5] = target: T5, CLK3 (Homo sapiens, UniProt P49761)
T5 construct: purchased Eurofins Discovery (DiscoverX KINOMEscan scanMAX)
Method: as §1

[6] = target: T6, RPS6KA4(Kin.Dom.1-N-terminal) (Homo sapiens, UniProt O75676)
T6 construct: RPS6KA4(Kin.Dom.1-N-terminal); purchased Eurofins Discovery (DiscoverX KINOMEscan scanMAX)
Method: as §1

[7] = target: T7, GRK1 (Homo sapiens, UniProt Q15835)
T7 construct: purchased Eurofins Discovery (DiscoverX KINOMEscan scanMAX)
Method: as §1

[8] = target: T8, MST1R (Homo sapiens, UniProt Q04912)
T8 construct: purchased Eurofins Discovery (DiscoverX KINOMEscan scanMAX)
Method: as §1

[9] = target: T9, SLK (Homo sapiens, UniProt Q9H2G2)
T9 construct: purchased Eurofins Discovery (DiscoverX KINOMEscan scanMAX)
Method: as §1

[10] = target: T10, ABL1(H396P)-phosphorylated (Homo sapiens, UniProt P00519, H396P)
T10 construct: purchased Eurofins Discovery (DiscoverX KINOMEscan scanMAX)
Method: as §1

[11] = target: T11, RIOK3 (Homo sapiens, UniProt O14730)
T11 construct: purchased Eurofins Discovery (DiscoverX KINOMEscan scanMAX)
Method: as §1

[12] = target: T12, TGFBR1 (Homo sapiens, UniProt P36897)
T12 construct: purchased Eurofins Discovery (DiscoverX KINOMEscan scanMAX)
Method: as §1

[13] = target: T13, GRK3 (Homo sapiens, UniProt P35626)
T13 construct: purchased Eurofins Discovery (DiscoverX KINOMEscan scanMAX)
Method: as §1

[14] = target: T14, ACVRL1 (Homo sapiens, UniProt P37023)
T14 construct: purchased Eurofins Discovery (DiscoverX KINOMEscan scanMAX)
Method: as §1

[15] = target: T15, EPHA8 (Homo sapiens, UniProt P29322)
T15 construct: purchased Eurofins Discovery (DiscoverX KINOMEscan scanMAX)
Method: as §1

[16] = target: T16, DCAMKL2 (Homo sapiens, UniProt Q8N568)
T16 construct: purchased Eurofins Discovery (DiscoverX KINOMEscan scanMAX)
Method: as §1

[17] = target: T17, EPHA6 (Homo sapiens, UniProt Q9UF33)
T17 construct: purchased Eurofins Discovery (DiscoverX KINOMEscan scanMAX)
Method: as §1

[18] = target: T18, ABL1-nonphosphorylated (Homo sapiens, UniProt P00519)
T18 construct: purchased Eurofins Discovery (DiscoverX KINOMEscan scanMAX)
Method: as §1

[19] = target: T19, KIT(V559D,T670I) (Homo sapiens, UniProt P10721, T670I/V559D)
T19 construct: purchased Eurofins Discovery (DiscoverX KINOMEscan scanMAX)
Method: as §1

[20] = target: T20, PRKR (Homo sapiens, UniProt P19525)
T20 construct: purchased Eurofins Discovery (DiscoverX KINOMEscan scanMAX)
Method: as §1

[21] = target: T21, PRKG1 (Homo sapiens, UniProt Q13976)
T21 construct: purchased Eurofins Discovery (DiscoverX KINOMEscan scanMAX)
Method: as §1

[22] = target: T22, JAK1(JH1domain-catalytic) (Homo sapiens, UniProt P23458)
T22 construct: JAK1(JH1domain-catalytic); purchased Eurofins Discovery (DiscoverX KINOMEscan scanMAX)
Method: as §1

[23] = target: T23, JAK3(JH1domain-catalytic) (Homo sapiens, UniProt P52333)
T23 construct: JAK3(JH1domain-catalytic); purchased Eurofins Discovery (DiscoverX KINOMEscan scanMAX)
Method: as §1

[24] = target: T24, RSK4(Kin.Dom.2-C-terminal) (Homo sapiens, UniProt Q9UK32)
T24 construct: RSK4(Kin.Dom.2-C-terminal); purchased Eurofins Discovery (DiscoverX KINOMEscan scanMAX)
Method: as §1

[25] = target: T25, MAPKAPK2 (Homo sapiens, UniProt P49137)
T25 construct: purchased Eurofins Discovery (DiscoverX KINOMEscan scanMAX)
Method: as §1

[26] = target: T26, FLT3-autoinhibited (Homo sapiens, UniProt P36888)
T26 construct: purchased Eurofins Discovery (DiscoverX KINOMEscan scanMAX)
Method: as §1

[27] = target: T27, ERK4 (Homo sapiens, UniProt P31152)
T27 construct: purchased Eurofins Discovery (DiscoverX KINOMEscan scanMAX)
Method: as §1

[28] = target: T28, LCK (Homo sapiens, UniProt P06239)
T28 construct: purchased Eurofins Discovery (DiscoverX KINOMEscan scanMAX)
Method: as §1

[29] = target: T29, PDGFRA (Homo sapiens, UniProt P16234)
T29 construct: purchased Eurofins Discovery (DiscoverX KINOMEscan scanMAX)
Method: as §1

[30] = target: T30, WNK2 (Homo sapiens, UniProt Q9Y3S1)
T30 construct: purchased Eurofins Discovery (DiscoverX KINOMEscan scanMAX)
Method: as §1

[31] = target: T31, MEK3 (Homo sapiens, UniProt P46734)
T31 construct: purchased Eurofins Discovery (DiscoverX KINOMEscan scanMAX)
Method: as §1

[32] = target: T32, MET(M1250T) (Homo sapiens, UniProt P08581, M1250T)
T32 construct: purchased Eurofins Discovery (DiscoverX KINOMEscan scanMAX)
Method: as §1

T25 sequence (P49137 whole entry): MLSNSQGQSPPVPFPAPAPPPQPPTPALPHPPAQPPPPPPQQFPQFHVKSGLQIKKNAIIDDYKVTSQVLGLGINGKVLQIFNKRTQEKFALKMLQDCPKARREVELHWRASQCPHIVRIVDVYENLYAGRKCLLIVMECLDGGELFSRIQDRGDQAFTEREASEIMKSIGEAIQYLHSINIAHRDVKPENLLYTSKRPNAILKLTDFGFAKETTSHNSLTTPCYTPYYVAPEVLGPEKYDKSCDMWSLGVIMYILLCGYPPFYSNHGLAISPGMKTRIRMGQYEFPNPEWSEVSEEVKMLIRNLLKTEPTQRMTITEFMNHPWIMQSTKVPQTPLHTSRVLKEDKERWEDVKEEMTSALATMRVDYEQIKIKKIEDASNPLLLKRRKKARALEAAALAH
T23 sequence (P52333 814-1124 limits assumed): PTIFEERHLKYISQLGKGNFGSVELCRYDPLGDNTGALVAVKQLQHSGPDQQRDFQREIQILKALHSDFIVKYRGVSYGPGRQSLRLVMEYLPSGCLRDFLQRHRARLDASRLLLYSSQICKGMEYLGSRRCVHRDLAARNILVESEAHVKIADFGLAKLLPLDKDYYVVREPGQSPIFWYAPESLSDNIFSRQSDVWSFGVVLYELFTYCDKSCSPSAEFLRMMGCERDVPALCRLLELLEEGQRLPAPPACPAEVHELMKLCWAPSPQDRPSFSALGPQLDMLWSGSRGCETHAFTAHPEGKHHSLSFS
T31 sequence (P46734 whole entry): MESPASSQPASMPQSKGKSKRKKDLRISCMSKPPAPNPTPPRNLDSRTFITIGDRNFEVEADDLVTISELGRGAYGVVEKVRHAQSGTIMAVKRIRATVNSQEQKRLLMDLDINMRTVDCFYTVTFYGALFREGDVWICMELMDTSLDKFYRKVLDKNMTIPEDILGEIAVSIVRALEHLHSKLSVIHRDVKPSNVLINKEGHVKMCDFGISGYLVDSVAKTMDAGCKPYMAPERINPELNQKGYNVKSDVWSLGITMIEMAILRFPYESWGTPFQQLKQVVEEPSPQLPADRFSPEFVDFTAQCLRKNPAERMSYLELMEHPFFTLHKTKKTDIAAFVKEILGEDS
T30 sequence (Q9Y3S1 whole entry): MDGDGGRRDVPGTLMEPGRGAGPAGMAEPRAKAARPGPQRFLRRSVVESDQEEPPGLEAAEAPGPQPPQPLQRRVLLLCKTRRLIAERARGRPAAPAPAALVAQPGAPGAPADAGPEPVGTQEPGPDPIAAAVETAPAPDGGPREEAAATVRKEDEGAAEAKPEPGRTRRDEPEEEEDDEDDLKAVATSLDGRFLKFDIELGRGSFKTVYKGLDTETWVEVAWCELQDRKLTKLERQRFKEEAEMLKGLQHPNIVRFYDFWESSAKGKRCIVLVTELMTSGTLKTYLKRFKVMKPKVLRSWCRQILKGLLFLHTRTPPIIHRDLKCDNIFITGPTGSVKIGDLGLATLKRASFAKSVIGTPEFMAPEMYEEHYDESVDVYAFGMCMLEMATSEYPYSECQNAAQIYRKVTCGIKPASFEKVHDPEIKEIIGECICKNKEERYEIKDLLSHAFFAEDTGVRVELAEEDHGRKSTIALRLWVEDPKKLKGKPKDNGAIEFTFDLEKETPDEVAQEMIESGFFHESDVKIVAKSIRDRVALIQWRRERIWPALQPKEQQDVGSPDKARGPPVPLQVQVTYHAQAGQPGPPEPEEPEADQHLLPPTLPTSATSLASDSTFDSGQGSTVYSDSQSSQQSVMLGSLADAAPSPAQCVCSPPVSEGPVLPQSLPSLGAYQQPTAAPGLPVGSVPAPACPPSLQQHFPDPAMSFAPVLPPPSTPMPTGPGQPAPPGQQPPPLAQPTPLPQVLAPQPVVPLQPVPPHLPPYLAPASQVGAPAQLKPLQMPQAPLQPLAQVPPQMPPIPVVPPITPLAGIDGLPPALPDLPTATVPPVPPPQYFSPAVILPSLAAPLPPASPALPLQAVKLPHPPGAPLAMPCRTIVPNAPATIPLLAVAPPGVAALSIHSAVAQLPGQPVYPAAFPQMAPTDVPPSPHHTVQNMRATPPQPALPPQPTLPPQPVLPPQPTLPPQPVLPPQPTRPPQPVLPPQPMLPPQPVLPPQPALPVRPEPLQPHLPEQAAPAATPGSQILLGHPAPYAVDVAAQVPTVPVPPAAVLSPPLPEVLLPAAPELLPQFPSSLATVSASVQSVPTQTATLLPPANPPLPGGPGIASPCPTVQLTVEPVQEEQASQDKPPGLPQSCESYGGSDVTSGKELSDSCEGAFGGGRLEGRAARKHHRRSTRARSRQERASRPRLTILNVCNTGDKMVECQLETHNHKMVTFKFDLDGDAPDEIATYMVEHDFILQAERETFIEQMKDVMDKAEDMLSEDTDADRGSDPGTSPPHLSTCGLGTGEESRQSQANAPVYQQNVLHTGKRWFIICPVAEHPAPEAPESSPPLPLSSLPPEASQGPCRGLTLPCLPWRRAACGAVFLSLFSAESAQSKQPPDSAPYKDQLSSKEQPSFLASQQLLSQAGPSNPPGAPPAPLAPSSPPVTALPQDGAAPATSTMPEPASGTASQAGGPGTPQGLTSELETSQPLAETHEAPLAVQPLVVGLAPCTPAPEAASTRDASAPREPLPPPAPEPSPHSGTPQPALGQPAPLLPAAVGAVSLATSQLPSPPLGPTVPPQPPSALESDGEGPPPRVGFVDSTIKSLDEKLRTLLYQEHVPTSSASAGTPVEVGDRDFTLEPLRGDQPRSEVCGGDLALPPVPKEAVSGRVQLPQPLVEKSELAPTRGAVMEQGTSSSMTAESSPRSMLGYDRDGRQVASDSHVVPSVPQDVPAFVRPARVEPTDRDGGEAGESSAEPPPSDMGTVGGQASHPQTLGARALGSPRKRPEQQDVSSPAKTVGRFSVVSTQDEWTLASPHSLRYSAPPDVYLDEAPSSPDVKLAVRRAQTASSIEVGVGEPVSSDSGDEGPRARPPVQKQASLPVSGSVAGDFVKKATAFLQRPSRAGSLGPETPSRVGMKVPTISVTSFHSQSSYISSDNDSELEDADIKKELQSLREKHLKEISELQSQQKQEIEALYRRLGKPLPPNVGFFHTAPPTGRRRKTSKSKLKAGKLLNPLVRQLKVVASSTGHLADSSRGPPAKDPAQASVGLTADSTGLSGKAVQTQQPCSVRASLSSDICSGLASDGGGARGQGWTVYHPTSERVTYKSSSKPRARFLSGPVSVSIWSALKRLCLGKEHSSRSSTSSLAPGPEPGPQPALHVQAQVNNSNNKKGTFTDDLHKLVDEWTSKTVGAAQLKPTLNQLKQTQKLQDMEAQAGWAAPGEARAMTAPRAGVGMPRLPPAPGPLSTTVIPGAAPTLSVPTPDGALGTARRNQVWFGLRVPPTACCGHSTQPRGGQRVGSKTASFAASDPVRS
T8 sequence (Q04912 25-1400): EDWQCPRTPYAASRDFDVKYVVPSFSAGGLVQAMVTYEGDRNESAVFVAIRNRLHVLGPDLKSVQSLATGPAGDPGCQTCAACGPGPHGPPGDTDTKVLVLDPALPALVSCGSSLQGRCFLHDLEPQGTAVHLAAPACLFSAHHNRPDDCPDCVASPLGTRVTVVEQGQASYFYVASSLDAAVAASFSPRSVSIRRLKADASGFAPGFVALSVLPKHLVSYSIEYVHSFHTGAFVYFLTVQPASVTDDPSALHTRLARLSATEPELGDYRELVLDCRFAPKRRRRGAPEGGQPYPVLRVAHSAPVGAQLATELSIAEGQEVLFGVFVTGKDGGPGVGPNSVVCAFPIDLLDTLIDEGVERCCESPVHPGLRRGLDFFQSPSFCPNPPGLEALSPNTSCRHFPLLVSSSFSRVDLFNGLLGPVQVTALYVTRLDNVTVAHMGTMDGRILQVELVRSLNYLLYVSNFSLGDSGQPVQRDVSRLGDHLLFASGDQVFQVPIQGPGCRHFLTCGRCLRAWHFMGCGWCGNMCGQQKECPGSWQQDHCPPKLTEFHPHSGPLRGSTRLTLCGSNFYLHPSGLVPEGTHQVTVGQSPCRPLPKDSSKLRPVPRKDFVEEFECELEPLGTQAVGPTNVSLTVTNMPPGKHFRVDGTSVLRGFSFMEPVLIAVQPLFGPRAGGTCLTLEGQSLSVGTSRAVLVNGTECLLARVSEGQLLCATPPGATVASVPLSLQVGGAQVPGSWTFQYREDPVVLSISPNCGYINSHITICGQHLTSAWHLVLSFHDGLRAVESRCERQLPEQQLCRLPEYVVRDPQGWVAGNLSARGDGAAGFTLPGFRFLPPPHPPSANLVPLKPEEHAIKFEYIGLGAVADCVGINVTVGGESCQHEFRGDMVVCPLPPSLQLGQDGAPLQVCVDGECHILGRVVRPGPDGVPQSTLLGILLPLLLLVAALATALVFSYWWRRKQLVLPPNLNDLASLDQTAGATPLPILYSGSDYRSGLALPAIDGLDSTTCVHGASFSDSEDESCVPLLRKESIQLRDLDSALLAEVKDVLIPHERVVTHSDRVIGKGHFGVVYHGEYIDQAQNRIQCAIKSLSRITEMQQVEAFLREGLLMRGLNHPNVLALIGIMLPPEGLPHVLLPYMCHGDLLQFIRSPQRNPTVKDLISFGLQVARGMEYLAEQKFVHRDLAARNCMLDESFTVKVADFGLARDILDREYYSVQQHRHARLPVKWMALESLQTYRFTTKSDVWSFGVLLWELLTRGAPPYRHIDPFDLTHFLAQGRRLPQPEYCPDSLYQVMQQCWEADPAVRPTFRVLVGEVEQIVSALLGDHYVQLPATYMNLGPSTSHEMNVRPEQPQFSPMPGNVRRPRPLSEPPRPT
T6 sequence (O75676 1-371 limits assumed): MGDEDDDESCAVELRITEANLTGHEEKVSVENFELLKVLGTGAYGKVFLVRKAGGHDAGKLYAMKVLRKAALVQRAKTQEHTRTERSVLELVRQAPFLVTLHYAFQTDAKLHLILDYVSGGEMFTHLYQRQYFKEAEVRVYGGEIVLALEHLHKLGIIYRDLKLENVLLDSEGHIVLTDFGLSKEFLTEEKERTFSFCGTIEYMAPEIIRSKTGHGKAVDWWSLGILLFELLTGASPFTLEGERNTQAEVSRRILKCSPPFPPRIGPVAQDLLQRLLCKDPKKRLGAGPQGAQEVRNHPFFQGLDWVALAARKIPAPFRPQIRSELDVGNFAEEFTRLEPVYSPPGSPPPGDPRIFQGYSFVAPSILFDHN

Question: For Cc1cc(Nc2ccc(F)c(CC3(C(=O)N4CCC(F)(CN5CCN(c6ccc(N7CCC(=O)NC7=O)cn6)CC5)CC4)CCN(Cc4cccc(Cl)c4F)CC3)n2)n[nH]1 [SK5527], which remaining binding at 0.1 µM ([1]; 100 nM) is on record?
Answer: 91%

Question: What about the remaining binding at 1 µM ([1]; 1000 nM) of the same molecule?
Answer: 100%

Question: What about the remaining binding at 0.1 µM ([2]; 100 nM) of the same molecule?
Answer: 100%

Question: And the remaining binding at 1 µM ([2]; 1000 nM)?
Answer: 100%

Question: And the remaining binding at 0.1 µM ([3]; 100 nM)?
Answer: 100%

Question: What about the remaining binding at 1 µM ([3]; 1000 nM) of the same molecule?
Answer: 97%

Question: And the remaining binding at 0.1 µM ([4]; 100 nM)?
Answer: 100%

Question: What about the remaining binding at 1 µM ([4]; 1000 nM) of the same molecule?
Answer: 100%

Question: And the remaining binding at 0.1 µM ([5]; 100 nM)?
Answer: 100%

Question: And the remaining binding at 1 µM ([5]; 1000 nM)?
Answer: 100%

Question: And the remaining binding at 0.1 µM ([6]; 100 nM)?
Answer: 90%

Question: What about the remaining binding at 1 µM ([6]; 1000 nM) of the same molecule?
Answer: 95%

Question: What about the remaining binding at 0.1 µM ([7]; 100 nM) of the same molecule?
Answer: 100%

Question: And the remaining binding at 1 µM ([7]; 1000 nM)?
Answer: 85%

Question: What about the remaining binding at 0.1 µM ([8]; 100 nM) of the same molecule?
Answer: 100%

Question: What about the remaining binding at 1 µM ([8]; 1000 nM) of the same molecule?
Answer: 100%

Question: What about the remaining binding at 0.1 µM ([9]; 100 nM) of the same molecule?
Answer: 95%

Question: And the remaining binding at 1 µM ([9]; 1000 nM)?
Answer: 100%

Question: What about the remaining binding at 0.1 µM ([10]; 100 nM) of the same molecule?
Answer: 88%

Question: What about the remaining binding at 1 µM ([10]; 1000 nM) of the same molecule?
Answer: 70%

Question: What about the remaining binding at 0.1 µM ([11]; 100 nM) of the same molecule?
Answer: 96%

Question: And the remaining binding at 1 µM ([11]; 1000 nM)?
Answer: 82%

Question: And the remaining binding at 0.1 µM ([12]; 100 nM)?
Answer: 100%

Question: What about the remaining binding at 1 µM ([12]; 1000 nM) of the same molecule?
Answer: 100%

Question: What about the remaining binding at 0.1 µM ([13]; 100 nM) of the same molecule?
Answer: 100%

Question: And the remaining binding at 1 µM ([13]; 1000 nM)?
Answer: 100%

Question: And the remaining binding at 0.1 µM ([14]; 100 nM)?
Answer: 100%

Question: What about the remaining binding at 1 µM ([14]; 1000 nM) of the same molecule?
Answer: 100%

Question: And the remaining binding at 0.1 µM ([15]; 100 nM)?
Answer: 91%

Question: What about the remaining binding at 1 µM ([15]; 1000 nM) of the same molecule?
Answer: 81%

Question: What about the remaining binding at 0.1 µM ([16]; 100 nM) of the same molecule?
Answer: 93%

Question: What about the remaining binding at 1 µM ([16]; 1000 nM) of the same molecule?
Answer: 91%

Question: And the remaining binding at 0.1 µM ([17]; 100 nM)?
Answer: 100%

Question: And the remaining binding at 1 µM ([17]; 1000 nM)?
Answer: 93%

Question: What about the remaining binding at 0.1 µM ([18]; 100 nM) of the same molecule?
Answer: 55%

Question: What about the remaining binding at 1 µM ([18]; 1000 nM) of the same molecule?
Answer: 8.4%

Question: What about the remaining binding at 0.1 µM ([19]; 100 nM) of the same molecule?
Answer: 100%

Question: And the remaining binding at 1 µM ([19]; 1000 nM)?
Answer: 89%

Question: And the remaining binding at 0.1 µM ([20]; 100 nM)?
Answer: 100%

Question: And the remaining binding at 1 µM ([20]; 1000 nM)?
Answer: 91%

Question: And the remaining binding at 0.1 µM ([21]; 100 nM)?
Answer: 92%

Question: What about the remaining binding at 1 µM ([21]; 1000 nM) of the same molecule?
Answer: 100%

Question: And the remaining binding at 0.1 µM ([22]; 100 nM)?
Answer: 82%

Question: And the remaining binding at 1 µM ([22]; 1000 nM)?
Answer: 93%

Question: And the remaining binding at 0.1 µM ([23]; 100 nM)?
Answer: 100%

Question: What about the remaining binding at 1 µM ([23]; 1000 nM) of the same molecule?
Answer: 80%

Question: What about the remaining binding at 0.1 µM ([24]; 100 nM) of the same molecule?
Answer: 75%

Question: And the remaining binding at 1 µM ([24]; 1000 nM)?
Answer: 80%

Question: What about the remaining binding at 0.1 µM ([25]; 100 nM) of the same molecule?
Answer: 84%

Question: And the remaining binding at 1 µM ([25]; 1000 nM)?
Answer: 100%

Question: What about the remaining binding at 0.1 µM ([26]; 100 nM) of the same molecule?
Answer: 96%

Question: What about the remaining binding at 1 µM ([26]; 1000 nM) of the same molecule?
Answer: 68%

Question: What about the remaining binding at 0.1 µM ([27]; 100 nM) of the same molecule?
Answer: 97%

Question: What about the remaining binding at 1 µM ([27]; 1000 nM) of the same molecule?
Answer: 98%

Question: What about the remaining binding at 0.1 µM ([28]; 100 nM) of the same molecule?
Answer: 82%

Question: What about the remaining binding at 1 µM ([28]; 1000 nM) of the same molecule?
Answer: 84%

Question: And the remaining binding at 0.1 µM ([29]; 100 nM)?
Answer: 92%

Question: And the remaining binding at 1 µM ([29]; 1000 nM)?
Answer: 84%

Question: And the remaining binding at 0.1 µM ([30]; 100 nM)?
Answer: 100%

Question: And the remaining binding at 1 µM ([30]; 1000 nM)?
Answer: 100%

Question: And the remaining binding at 0.1 µM ([31]; 100 nM)?
Answer: 100%

Question: What about the remaining binding at 1 µM ([31]; 1000 nM) of the same molecule?
Answer: 82%

Question: What about the remaining binding at 0.1 µM ([32]; 100 nM) of the same molecule?
Answer: 85%

Question: What about the remaining binding at 1 µM ([32]; 1000 nM) of the same molecule?
Answer: 80%
